Patent publication US10336691B2, “Pesticidally active oxime and hydrazone derivatives” (Syngenta Participations AG, priority 2015, dated 2019)

What was measured:
Plutella xylostella = Plutella xylostella (diamond back moth) artificial diet test, L2 larvae; format: in vivo; conditions: 120 h, application rate of 200 ppm, 5 days after infestation, in comparison to untreated samples, read-out: effect in at least one of the two categories (mortality or growth inhibition)
Procedure: Plutella xylostella (Diamond Back Moth)
(§1) 24-well microtiter plates with artificial diet were treated with aqueous test solutions prepared from 10,000 ppm DMSO stock solutions by pipetting. After drying, the plates were infested with L2 larvae (10 to 15 per well). The samples were assessed for mortality and growth inhibition in comparison to untreated samples 5 days after infestation.

Diabrotica balteata = Diabrotica balteata (corn root worm) maize sprout spray test, L2 larvae; format: in vivo; conditions: 96 h, application rate of 200 ppm, 4 days after infestation, in comparison to untreated samples, read-out: effect in at least one of the two categories (mortality or growth inhibition)
Procedure: Diabrotica balteata (Corn Root Worm)
as §1, with “Maize sprouts, placed on an agar layer in 24-well” for “24-well”, “plates” for “plates with artificial diet”, “spraying.” for “pipetting.”, “(6” for “(10”, “10” for “15”, “4” for “5”

Spodoptera littoralis = Spodoptera littoralis (Egyptian cotton leaf worm) cotton leaf disc spray test, L1 larvae; format: in vivo; conditions: foliar, 72 h, application rate of 200 ppm, 3 days after infestation, in comparison to untreated samples, read-out: control (at least one of mortality, anti-feedant effect, and growth inhibition)
Procedure: Spodoptera littoralis (Egyptian Cotton Leaf Worm)
Cotton leaf discs were placed on agar in 24-well microtiter plates and sprayed with aqueous test solutions prepared from 10,000 ppm DMSO stock solutions. After drying, the leaf discs were infested with five L1 larvae. The samples were assessed for mortality, anti-feedant effect, and growth inhibition in comparison to untreated samples 3 days after infestation. Control of Spodoptera littoralis by a test sample is when at least one of mortality, anti-feedant effect, and growth inhibition is higher than the untreated sample.

Row | melting point | Structure (SMILES) | percent effect (mortality or growth inhibition) at 200 ppm (Plutella xylostella) | percent effect (mortality or growth inhibition) at 200 ppm (Diabrotica balteata) | mortality at 200 ppm (Spodoptera littoralis)
1 | 215 to 224 °C | C/C(=N\Nc1ccc(/C=N/NC(=O)Nc2c(C)cccc2C)cc1)c1ccccc1OC(F)(F)F |  |  | 
2 |  | CC(C)c1ccccc1NC(=S)N/N=C/c1ccc(O/N=C2\CCc3cc(OC(F)(F)F)ccc32)cc1 [Compound 5, 1-(2-isopropylphenyl)-3-[[4-[[5-(trifluoromethoxy)indan-1-ylidene]amino]oxyphenyl]methylene-amino]thiourea] | ≥ 80% | ≥ 80% | ≥ 80%
3 |  | CC/C(=N\Nc1ccc(/C=N/NC(=S)Nc2ccccc2C(C)C)cc1)c1ccc(C(F)(F)F)cc1 [Compound 26, 1-(2-isopropylphenyl)-3-[(E)-[4-[(2E)-2-[1-[4-(trifluoromethyl)phenyl]propylidene] hydrazino]phenyl]methyleneamino] thiourea] | ≥ 80% | ≥ 80% | ≥ 80%
4 |  | C/C(=N\Nc1ccc(/C=N/NC(=S)Nc2c(C)cccc2C)cc1)c1ccc(C(F)(F)F)cc1 [Compound 22, 1-(2,6-dimethylphenyl)-3-[(E)-[4-[(2E)-2-[1-[4-(trifluoromethyl)phenyl]ethylidene] hydrazino]phenyl]methyleneamino] thiourea] | ≥ 80% | ≥ 80% | ≥ 80%
5 |  | Cc1cccc(C)c1NC(=O)N/N=C/c1ccc(O/N=C2\CCc3cc(OC(F)(F)F)ccc32)cc1 [Compound 1, 1-(2,6-dimethylphenyl)-3-[[4-[[5-(trifluoromethoxy)indan-1-ylidene]amino]oxyphenyl]methylene-amino]urea] | ≥ 80% | ≥ 80% | ≥ 80%
6 |  | CC/C(=N\Nc1ccc(/C=N/NC(=O)Nc2c(C)cccc2C)cc1)c1ccc(C(F)(F)F)cc1 [Compound 27, 1-(2,6-dimethylphenyl)-3-[(E)-[4-[(2E)-2-[1-[4-(trifluoromethyl)phenyl]propylidene] hydrazino]phenyl]methyleneamino] urea] | ≥ 80% | ≥ 80% | ≥ 80%
7 |  | CC/C(=N\Nc1ccc(/C=N/NC(=S)Nc2c(C)cccc2C)cc1)c1ccc(C(F)(F)F)cc1 [Compound 28, 1-(2,6-dimethylphenyl)-3-[(E)-[4-[(2E)-2-[1-[4-(trifluoromethyl)phenyl]propylidene] hydrazino]phenyl]methyleneamino] thiourea] | ≥ 80% | ≥ 80% | ≥ 80%
